Data reported in US20180188224A1, “METHOD FOR CONSTRUCTING A SENSORY SPACE” (CENTRE SCIENTIFIQUE ET TECHNIQUE DU BATIMENT (CSTB), priority 2015, published 2018).
Where “and” joins values, the source holds several entries; their conditions need not be identical. Equal values may be shown once.

Tests used:
[1] = test system: four non-smoking volunteers (2 men and 2 women); experiment: Taste identification questionnaire, trained panel (count of 6 repetitions per subject in which the stimulus was given each taste label; level of recognition %); type: in vivo, human; details: for Level of Recognition %: Neutral / Level of Recognition %: Salty / Level of Recognition %: Sour / Level of Recognition %: Sweet: four subjects
Experimental: (§1) In this test, four non-smoking volunteers (2 men and 2 women) were chosen from 12 people for their performance in taste recognition. Their mean age was 32 years, ranging from 24 to 40 years. […] These four people were trained for several months to recognize and detect the four basic tastes, and also regarding the procedures of sensory and physiological analysis.
(§2) The four basic tastes (sweet, salty, sour and bitter) were used. The solutions were prepared with citric acid for the sour taste, caffeine for the bitter taste, sodium chloride for the salty taste and sucrose for the sweet taste (all purchased from Sigma Aldrich, France) in Evian water. Evian water was also used as control and blank. Each taste was prepared with the four concentrations mentioned in table 1.
(§3) The amount of solution to be tested was standardized at 10 ml. In order to impregnate the whole of the oral cavity, the subjects kept the solution in their mouth for 5 s before swallowing it.
(§4) The sessions were individual and the subjects were asked not to eat or drink anything for at least 1 h before the test. They arrived 15 min before the start of the session in order to acclimatize to the environmental conditions, in particular the temperature of the room (kept constant at 23° C.) and to be resting seated on a comfortable chair. The 16 solutions for testing and two additional samples of water containing solely Evian water, added to the references, were presented monadically following a test order determined from a “balanced incomplete block design”. During a session, 9 samples out of 18 were presented to minimize sensory fatigue. In addition, a sample of Evian was always tested as a “blank” sample in order to avoid the first-order effect (Lawless, H. T. & Heymann, H., 2010, Sensory evaluation of food: Principles and practices. Springer, New York) and was excluded from the analysis. A light signal was sent to give the instruction to test the sample. When the disturbance to the nervous system returned to its baseline level (after approximately 1 min), a second light signal indicated to the subjects that they should complete a questionnaire regarding the stimulus tested previously. The first part of the questionnaire was linked to the identification of the taste (i.e. determining the quality of the taste); the subjects had to choose between five labels: sweet, salty, sour, bitter or neutral. They then had to assign a taste intensity score on an 11-point scale (from 0 “not intense” (i.e. taste of Evian only) to 10 “very intense”) and finally to give a hedonic score on an 11-point scale (from 0 “very unpleasant” to 10 “very pleasant”, 5 being “neutral”).
(§5) This procedure was repeated for each of the 9 stimuli. A session lasted approximately 45 min including a debriefing at the end of the test to ensure understanding of the sense of the signal variations. The experiment was repeated 12 times per subject, meaning that the data are composed of 6 data sets per subject and per product and 12 data sets for the Evian product per subject. Thus, the database consists of 432 samples.

[2] = test system: four non-smoking volunteers (2 men and 2 women); experiment: Taste intensity score, 11-point scale (0 not intense to 10 very intense); type: in vivo, human; details: concentration 4; averaged over 4 subjects, 6 repetitions each
Experimental: as §1, §2, §3, §4, §5
The effect of the taste on the hedonic and intensity scores was analyzed by an analysis of variance (ANOVA) including the product effect, the subject effect and the product-subject interaction. The subject effect was fixed because there were only 4 subjects and the results could only be applied to a particular schema. The differences were considered to be significant at a level of 0.05.

[3] = cited from earlier work

For `[Cl-].[Na+]` [NaCl, sodium chloride], which “Individual recognition score: Neutral” value ([1]; Subject 1, dilution 1) is on record?
The value was 0.

What about the “Individual recognition score: Salty” value ([1]; Subject 1, dilution 1) of the same compound?
The value was 6.

What about the “Individual recognition score: Sour” value ([1]; Subject 1, dilution 1) of the same compound?
Its value is 0.

What about the “Individual recognition score: Sweet” value ([1]; Subject 1, dilution 1) of the same compound?
Its value is 0.

What about the “Individual recognition score: Neutral” value ([1]; Subject 1, dilution 2) of the same compound?
Its value is 0.

And the “Individual recognition score: Salty” value ([1]; Subject 1, dilution 2)?
The value was 6.

What about the “Individual recognition score: Sour” value ([1]; Subject 1, dilution 2) of the same compound?
Its value is 0.

And the “Individual recognition score: Sweet” value ([1]; Subject 1, dilution 2)?
Its value is 0.

And the “Individual recognition score: Neutral” value ([1]; Subject 1, dilution 3)?
The value was 0.

What about the “Individual recognition score: Salty” value ([1]; Subject 1, dilution 3) of the same compound?
Its value is 6.

And the “Individual recognition score: Sour” value ([1]; Subject 1, dilution 3)?
Its value is 0.

And the “Individual recognition score: Sweet” value ([1]; Subject 1, dilution 3)?
The value was 0.

And the “Individual recognition score: Neutral” value ([1]; Subject 1, dilution 4)?
Its value is 0.

And the “Individual recognition score: Salty” value ([1]; Subject 1, dilution 4)?
Its value is 6.

What about the “Individual recognition score: Sour” value ([1]; Subject 1, dilution 4) of the same compound?
The value was 0.

And the “Individual recognition score: Sweet” value ([1]; Subject 1, dilution 4)?
Its value is 0.

And the “Individual recognition score: Neutral” value ([1]; Subject 2, dilution 1)?
Its value is 0.

And the “Individual recognition score: Salty” value ([1]; Subject 2, dilution 1)?
The value was 6.

What about the “Individual recognition score: Sour” value ([1]; Subject 2, dilution 1) of the same compound?
The value was 0.

And the “Individual recognition score: Sweet” value ([1]; Subject 2, dilution 1)?
Its value is 0.

And the “Individual recognition score: Neutral” value ([1]; Subject 2, dilution 2)?
Its value is 0.

What about the “Individual recognition score: Salty” value ([1]; Subject 2, dilution 2) of the same compound?
The value was 6.

What about the “Individual recognition score: Sour” value ([1]; Subject 2, dilution 2) of the same compound?
Its value is 0.

And the “Individual recognition score: Sweet” value ([1]; Subject 2, dilution 2)?
Its value is 0.

What about the “Individual recognition score: Neutral” value ([1]; Subject 2, dilution 3) of the same compound?
The value was 0.

And the “Individual recognition score: Salty” value ([1]; Subject 2, dilution 3)?
Its value is 6.

And the “Individual recognition score: Sour” value ([1]; Subject 2, dilution 3)?
Its value is 0.

And the “Individual recognition score: Sweet” value ([1]; Subject 2, dilution 3)?
Its value is 0.

And the “Individual recognition score: Neutral” value ([1]; Subject 2, dilution 4)?
The value was 0.

What about the “Individual recognition score: Salty” value ([1]; Subject 2, dilution 4) of the same compound?
The value was 6.

What about the “Individual recognition score: Sour” value ([1]; Subject 2, dilution 4) of the same compound?
Its value is 0.

What about the “Individual recognition score: Sweet” value ([1]; Subject 2, dilution 4) of the same compound?
Its value is 0.

What about the “Individual recognition score: Neutral” value ([1]; Subject 3, dilution 1) of the same compound?
Its value is 0.

What about the “Individual recognition score: Salty” value ([1]; Subject 3, dilution 1) of the same compound?
Its value is 6.

What about the “Individual recognition score: Sour” value ([1]; Subject 3, dilution 1) of the same compound?
The value was 0.

What about the “Individual recognition score: Sweet” value ([1]; Subject 3, dilution 1) of the same compound?
Its value is 0.

And the “Individual recognition score: Neutral” value ([1]; Subject 3, dilution 2)?
The value was 0.

And the “Individual recognition score: Salty” value ([1]; Subject 3, dilution 2)?
Its value is 6.

And the “Individual recognition score: Sour” value ([1]; Subject 3, dilution 2)?
Its value is 0.

What about the “Individual recognition score: Sweet” value ([1]; Subject 3, dilution 2) of the same compound?
Its value is 0.

What about the “Individual recognition score: Neutral” value ([1]; Subject 3, dilution 3) of the same compound?
The value was 0.

And the “Individual recognition score: Salty” value ([1]; Subject 3, dilution 3)?
The value was 6.

What about the “Individual recognition score: Sour” value ([1]; Subject 3, dilution 3) of the same compound?
The value was 0.

What about the “Individual recognition score: Sweet” value ([1]; Subject 3, dilution 3) of the same compound?
Its value is 0.

And the “Individual recognition score: Neutral” value ([1]; Subject 3, dilution 4)?
The value was 0.

What about the “Individual recognition score: Salty” value ([1]; Subject 3, dilution 4) of the same compound?
Its value is 6.

What about the “Individual recognition score: Sour” value ([1]; Subject 3, dilution 4) of the same compound?
The value was 0.

What about the “Individual recognition score: Sweet” value ([1]; Subject 3, dilution 4) of the same compound?
The value was 0.

What about the “Individual recognition score: Neutral” value ([1]; Subject 4, dilution 1) of the same compound?
The value was 0.

What about the “Individual recognition score: Salty” value ([1]; Subject 4, dilution 1) of the same compound?
The value was 5.

What about the “Individual recognition score: Sour” value ([1]; Subject 4, dilution 1) of the same compound?
Its value is 0.

What about the “Individual recognition score: Sweet” value ([1]; Subject 4, dilution 1) of the same compound?
Its value is 0.

And the “Individual recognition score: Neutral” value ([1]; Subject 4, dilution 2)?
The value was 0.

And the “Individual recognition score: Salty” value ([1]; Subject 4, dilution 2)?
The value was 6.

And the “Individual recognition score: Sour” value ([1]; Subject 4, dilution 2)?
Its value is 0.

What about the “Individual recognition score: Sweet” value ([1]; Subject 4, dilution 2) of the same compound?
The value was 0.

And the “Individual recognition score: Neutral” value ([1]; Subject 4, dilution 3)?
Its value is 0.

What about the “Individual recognition score: Salty” value ([1]; Subject 4, dilution 3) of the same compound?
Its value is 6.

What about the “Individual recognition score: Sour” value ([1]; Subject 4, dilution 3) of the same compound?
Its value is 0.

And the “Individual recognition score: Sweet” value ([1]; Subject 4, dilution 3)?
The value was 0.

And the “Individual recognition score: Neutral” value ([1]; Subject 4, dilution 4)?
Its value is 0.

What about the “Individual recognition score: Salty” value ([1]; Subject 4, dilution 4) of the same compound?
The value was 6.

And the “Individual recognition score: Sour” value ([1]; Subject 4, dilution 4)?
Its value is 0.

What about the “Individual recognition score: Sweet” value ([1]; Subject 4, dilution 4) of the same compound?
The value was 0.

And the “Level of Recognition %: Neutral” value ([1]; dilution 1)?
Its value is 0%.

And the “Level of Recognition %: Salty” value ([1]; dilution 1)?
Its value is 96%.

What about the “Level of Recognition %: Sour” value ([1]; dilution 1) of the same compound?
The value was 0%.

What about the “Level of Recognition %: Sweet” value ([1]; dilution 1) of the same compound?
Its value is 0%.

And the “Level of Recognition %: Neutral” value ([1]; dilution 2)?
The value was 0%.

What about the “Level of Recognition %: Salty” value ([1]; dilution 2) of the same compound?
The value was 100%.

What about the “Level of Recognition %: Sour” value ([1]; dilution 2) of the same compound?
The value was 0%.

And the “Level of Recognition %: Sweet” value ([1]; dilution 2)?
Its value is 0%.

And the “Level of Recognition %: Neutral” value ([1]; dilution 3)?
The value was 0%.

And the “Level of Recognition %: Salty” value ([1]; dilution 3)?
Its value is 100%.

What about the “Level of Recognition %: Sour” value ([1]; dilution 3) of the same compound?
The value was 0%.

What about the “Level of Recognition %: Sweet” value ([1]; dilution 3) of the same compound?
Its value is 0%.

What about the “Level of Recognition %: Neutral” value ([1]; dilution 4) of the same compound?
Its value is 0%.

And the “Level of Recognition %: Salty” value ([1]; dilution 4)?
Its value is 100%.

What about the “Level of Recognition %: Sour” value ([1]; dilution 4) of the same compound?
Its value is 0%.

What about the “Level of Recognition %: Sweet” value ([1]; dilution 4) of the same compound?
The value was 0%.

What about the “Individual recognition score: Bitter” value ([1]; human, in vivo) of the same compound?
Its value is 0 (15×) and 1.

And the “Level of Recognition %: Bitter” value ([1]; human, in vivo)?
The value was 4% and 0%.

And the intensity score [2]?
Its intensity score is 8.6±1.0.

And the “detection threshold concentration of the basic taste” value ([3]; literature (Purves 2005; Robinson 2005))?
Its value is “approximately 10 mmol·l^−1”.

What about the detection threshold ([3]; representative compound of a primary taste) of the same compound?
Its detection threshold is 0.584 g/L.
